Among the data in ChEMBL document CHEMBL3862033 (J Med Chem, 2016) are inhibition and Ki values, retold here.

pKi: −log10 of the molar value. Bounds are passed on as bounds.

For orientation: inhibition means the percentage by which the read-out fell short of the control. In general, pKi refers to −log10 of the Ki, conventionally taken in molar units.

T3 sequence (P28223 whole entry): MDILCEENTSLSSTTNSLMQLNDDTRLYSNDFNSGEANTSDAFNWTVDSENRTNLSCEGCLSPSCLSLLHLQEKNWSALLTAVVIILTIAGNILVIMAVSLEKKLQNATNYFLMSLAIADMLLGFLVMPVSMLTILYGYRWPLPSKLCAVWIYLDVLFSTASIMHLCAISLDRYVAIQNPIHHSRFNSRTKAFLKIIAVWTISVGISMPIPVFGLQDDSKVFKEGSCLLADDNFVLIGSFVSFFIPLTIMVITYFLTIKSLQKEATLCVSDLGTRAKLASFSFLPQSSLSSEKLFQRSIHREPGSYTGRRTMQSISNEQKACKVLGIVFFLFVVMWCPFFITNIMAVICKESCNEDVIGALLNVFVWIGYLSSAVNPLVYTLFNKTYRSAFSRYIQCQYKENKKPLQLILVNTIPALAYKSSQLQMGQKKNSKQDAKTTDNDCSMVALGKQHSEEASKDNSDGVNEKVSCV
Chain of 5-hydroxytryptamine receptor 1D (Homo sapiens) (P28221 whole entry): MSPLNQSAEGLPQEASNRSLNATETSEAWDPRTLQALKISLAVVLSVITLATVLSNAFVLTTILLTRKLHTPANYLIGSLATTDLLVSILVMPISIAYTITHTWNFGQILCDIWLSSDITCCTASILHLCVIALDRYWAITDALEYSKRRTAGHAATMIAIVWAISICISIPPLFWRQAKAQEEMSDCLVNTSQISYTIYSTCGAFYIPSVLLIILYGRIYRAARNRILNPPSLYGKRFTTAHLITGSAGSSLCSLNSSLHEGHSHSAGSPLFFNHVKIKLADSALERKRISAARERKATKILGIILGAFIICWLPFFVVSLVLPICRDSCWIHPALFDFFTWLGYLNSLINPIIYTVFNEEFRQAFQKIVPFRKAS

The first experiment deals with T1, 5-hydroxytryptamine receptor 1A (Homo sapiens) (UniProt P08908).
T1 sequence (whole entry): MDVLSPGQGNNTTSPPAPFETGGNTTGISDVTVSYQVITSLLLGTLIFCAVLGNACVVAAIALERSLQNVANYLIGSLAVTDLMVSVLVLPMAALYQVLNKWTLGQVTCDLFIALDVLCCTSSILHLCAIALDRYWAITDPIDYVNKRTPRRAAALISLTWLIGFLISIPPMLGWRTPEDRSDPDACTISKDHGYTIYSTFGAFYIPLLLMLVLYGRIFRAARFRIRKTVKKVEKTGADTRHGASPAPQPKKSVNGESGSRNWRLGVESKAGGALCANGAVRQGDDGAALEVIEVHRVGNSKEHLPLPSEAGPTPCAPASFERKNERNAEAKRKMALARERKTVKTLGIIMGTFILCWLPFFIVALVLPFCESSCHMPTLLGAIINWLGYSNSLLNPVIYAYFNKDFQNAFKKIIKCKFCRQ
The experiment is described as follows: Displacement of [3H]WAY100635 from human 5-HT1AR expressed in CHO cell membranes at 10 uM incubated for 90 mins under dark condition by microbeta scintillation counting method relative to control.
Conditions: not given
A general note: In a radioligand displacement assay an active substance lowers the binding of a labelled ligand.
`O=C(O)[C@@]12C[C@@H]1[C@@H](n1cnc3c(NC(C4CC4)C4CC4)nc(Cl)nc31)[C@H](O)[C@@H]2O` gave an inhibition of under 50%.

Another experiment deals with 5-hydroxytryptamine receptor 1B (Homo sapiens) (UniProt P28222). The experiment is described as follows: Displacement of [3H]5-CT from human 5-HT1BR expressed in HEK cell membranes at 10 uM incubated for 90 mins under dark condition by microbeta scintillation counting method relative to control. The conditions noted are these: HEK293.
Chain of 5-hydroxytryptamine receptor 1B (Homo sapiens) (P28222 whole entry): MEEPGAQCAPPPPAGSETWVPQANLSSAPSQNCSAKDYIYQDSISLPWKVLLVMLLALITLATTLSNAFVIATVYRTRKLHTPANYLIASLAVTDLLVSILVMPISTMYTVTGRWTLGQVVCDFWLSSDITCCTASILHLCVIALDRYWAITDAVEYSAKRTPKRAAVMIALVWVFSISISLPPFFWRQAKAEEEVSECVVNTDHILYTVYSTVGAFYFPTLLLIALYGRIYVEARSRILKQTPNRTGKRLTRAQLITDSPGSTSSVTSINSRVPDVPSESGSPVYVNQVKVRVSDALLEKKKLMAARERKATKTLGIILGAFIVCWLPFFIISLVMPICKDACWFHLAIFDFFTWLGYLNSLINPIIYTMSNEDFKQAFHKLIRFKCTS
`O=C(O)[C@@]12C[C@@H]1[C@@H](n1cnc3c(NC(C4CC4)C4CC4)nc(Cl)nc31)[C@H](O)[C@@H]2O` came in with an inhibition of under 50%.

A further experiment addresses 5-hydroxytryptamine receptor 1D (Homo sapiens) (UniProt P28221). Description: Displacement of [3H]5-CT from human 5-HT1D receptor expressed in HEK-T cell membranes at 10 uM incubated for 90 mins under dark condition by microbeta scintillation counting method relative to control.
Conditions: not given
`O=C(O)[C@@]12C[C@@H]1[C@@H](n1cnc3c(NC(C4CC4)C4CC4)nc(Cl)nc31)[C@H](O)[C@@H]2O` gave an inhibition of under 50%.

A further experiment deals with 5-hydroxytryptamine receptor 1E (Homo sapiens) (UniProt P28566). The experiment is described as follows: Displacement of [3H]5-HT from human 5-HT1E receptor expressed in HEK cell membranes at 10 uM incubated for 90 mins under dark condition by microbeta scintillation counting method relative to control. The conditions noted are these: HEK293.
Chain of 5-hydroxytryptamine receptor 1E (Homo sapiens) (P28566 whole entry): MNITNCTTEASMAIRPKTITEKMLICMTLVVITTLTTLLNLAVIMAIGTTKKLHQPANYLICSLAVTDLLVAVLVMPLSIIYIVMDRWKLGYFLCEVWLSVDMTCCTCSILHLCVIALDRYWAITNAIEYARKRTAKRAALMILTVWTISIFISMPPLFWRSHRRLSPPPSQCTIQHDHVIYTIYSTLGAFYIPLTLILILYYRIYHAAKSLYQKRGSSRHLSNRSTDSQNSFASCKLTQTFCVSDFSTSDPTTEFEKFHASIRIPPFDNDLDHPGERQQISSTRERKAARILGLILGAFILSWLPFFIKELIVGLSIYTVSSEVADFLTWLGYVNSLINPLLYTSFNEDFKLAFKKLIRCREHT
Consider `O=C(O)[C@@]12C[C@@H]1[C@@H](n1cnc3c(NC(C4CC4)C4CC4)nc(Cl)nc31)[C@H](O)[C@@H]2O`, for which the inhibition was under 50%.

The target of a further experiment is 5-hydroxytryptamine receptor 4 (Homo sapiens) (UniProt Q13639). The experiment is described as follows: Displacement of [3H]GR113808 from human 5-HT4 receptor at 10 uM incubated for 90 mins under dark condition by microbeta scintillation counting method relative to control.
Chain of 5-hydroxytryptamine receptor 4 (Homo sapiens) (Q13639 whole entry): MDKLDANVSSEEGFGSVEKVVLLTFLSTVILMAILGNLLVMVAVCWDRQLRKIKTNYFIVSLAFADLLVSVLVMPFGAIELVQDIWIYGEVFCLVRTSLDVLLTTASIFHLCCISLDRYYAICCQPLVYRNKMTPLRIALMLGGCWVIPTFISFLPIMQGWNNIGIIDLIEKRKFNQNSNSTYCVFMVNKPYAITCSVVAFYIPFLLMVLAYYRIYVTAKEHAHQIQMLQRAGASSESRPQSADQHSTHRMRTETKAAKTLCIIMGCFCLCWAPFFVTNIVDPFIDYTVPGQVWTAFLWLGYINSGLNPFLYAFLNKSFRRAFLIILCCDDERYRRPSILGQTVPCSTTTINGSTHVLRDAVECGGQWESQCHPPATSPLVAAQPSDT
Conditions: not given
On to `O=C(O)[C@@]12C[C@@H]1[C@@H](n1cnc3c(NC(C4CC4)C4CC4)nc(Cl)nc31)[C@H](O)[C@@H]2O`, for which the inhibition is under 50%.

The next experiment deals with 5-hydroxytryptamine receptor 6 (Homo sapiens) (UniProt P50406). The experiment is described as follows: Displacement of [3H]LSD from human 5-HT6 receptor expressed in HEK cell membranes at 10 uM incubated for 90 mins under dark condition by microbeta scintillation counting method relative to control. The note with it: HEK293.
Chain of 5-hydroxytryptamine receptor 6 (Homo sapiens) (P50406 whole entry): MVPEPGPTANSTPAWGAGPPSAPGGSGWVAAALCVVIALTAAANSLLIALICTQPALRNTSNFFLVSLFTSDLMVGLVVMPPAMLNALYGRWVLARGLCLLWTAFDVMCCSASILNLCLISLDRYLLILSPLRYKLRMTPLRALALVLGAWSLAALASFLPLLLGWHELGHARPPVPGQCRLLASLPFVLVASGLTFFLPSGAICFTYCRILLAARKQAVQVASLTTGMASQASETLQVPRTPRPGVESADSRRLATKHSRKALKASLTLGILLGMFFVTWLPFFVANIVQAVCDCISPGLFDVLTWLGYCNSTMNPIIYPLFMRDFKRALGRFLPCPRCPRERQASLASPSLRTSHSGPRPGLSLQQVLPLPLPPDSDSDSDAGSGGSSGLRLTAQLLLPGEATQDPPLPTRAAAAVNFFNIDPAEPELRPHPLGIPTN
Compound `O=C(O)[C@@]12C[C@@H]1[C@@H](n1cnc3c(NC(C4CC4)C4CC4)nc(Cl)nc31)[C@H](O)[C@@H]2O` registered an inhibition of under 50%.

In the next experiment the target is 5-hydroxytryptamine receptor 7 (Homo sapiens) (UniProt P34969). The experiment is described as follows: Displacement of [3H]LSD from human 5-HT7A receptor expressed in HEK cell membranes at 10 uM incubated for 90 mins under dark condition by microbeta scintillation counting method relative to control. The note with it: HEK293.
Chain of 5-hydroxytryptamine receptor 7 (Homo sapiens) (P34969 whole entry): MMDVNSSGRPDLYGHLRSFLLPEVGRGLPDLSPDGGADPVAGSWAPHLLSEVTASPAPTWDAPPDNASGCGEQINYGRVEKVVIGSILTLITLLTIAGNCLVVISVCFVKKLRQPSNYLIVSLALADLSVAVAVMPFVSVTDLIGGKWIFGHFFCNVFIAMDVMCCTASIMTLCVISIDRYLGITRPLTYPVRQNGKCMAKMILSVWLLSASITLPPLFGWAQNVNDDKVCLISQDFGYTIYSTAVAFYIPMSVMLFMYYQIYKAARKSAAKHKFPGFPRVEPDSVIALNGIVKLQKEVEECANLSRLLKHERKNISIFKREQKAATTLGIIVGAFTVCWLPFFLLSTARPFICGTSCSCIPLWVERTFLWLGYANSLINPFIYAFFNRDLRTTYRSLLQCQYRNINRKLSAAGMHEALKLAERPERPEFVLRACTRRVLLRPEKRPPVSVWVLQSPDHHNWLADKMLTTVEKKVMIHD
In turn, `O=C(O)[C@@]12C[C@@H]1[C@@H](n1cnc3c(NC(C4CC4)C4CC4)nc(Cl)nc31)[C@H](O)[C@@H]2O` came in with an inhibition of under 50%.

Another experiment addresses T2, 5-hydroxytryptamine receptor 3A (Homo sapiens) (UniProt P46098).
T2 sequence (whole entry): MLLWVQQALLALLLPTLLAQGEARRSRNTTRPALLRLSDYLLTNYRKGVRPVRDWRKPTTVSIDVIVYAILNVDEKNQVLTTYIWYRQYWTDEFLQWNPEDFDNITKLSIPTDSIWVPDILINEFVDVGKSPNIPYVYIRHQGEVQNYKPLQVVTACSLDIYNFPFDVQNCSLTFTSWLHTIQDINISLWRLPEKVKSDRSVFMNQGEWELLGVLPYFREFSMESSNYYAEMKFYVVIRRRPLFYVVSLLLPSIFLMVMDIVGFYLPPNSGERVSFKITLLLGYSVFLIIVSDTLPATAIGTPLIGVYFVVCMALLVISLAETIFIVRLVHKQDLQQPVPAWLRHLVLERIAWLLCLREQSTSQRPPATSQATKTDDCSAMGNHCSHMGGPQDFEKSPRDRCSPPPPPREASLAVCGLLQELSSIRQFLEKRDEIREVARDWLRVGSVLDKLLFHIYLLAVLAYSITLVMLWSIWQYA
Description: Displacement of [3H]GR65630 from human 5-HT3 receptor expressed in HEK-T cell membranes at 10 uM incubated for 90 mins under dark condition by microbeta scintillation counting method relative to control.
Conditions: not given
For `O=C(O)[C@@]12C[C@@H]1[C@@H](n1cnc3c(NC(C4CC4)C4CC4)nc(Cl)nc31)[C@H](O)[C@@H]2O`, the inhibition is under 50%.

The target of the next experiment is 5-hydroxytryptamine receptor 5A (Homo sapiens) (UniProt P47898). Description: Displacement of [3H]LSD from human 5-HT5A receptor expressed in Flp-In-CHO cell membranes incubated for 90 mins under dark condition by microbeta scintillation counting method relative to control. Details: concentration or dose not given beside the values.
Chain of 5-hydroxytryptamine receptor 5A (Homo sapiens) (P47898 whole entry): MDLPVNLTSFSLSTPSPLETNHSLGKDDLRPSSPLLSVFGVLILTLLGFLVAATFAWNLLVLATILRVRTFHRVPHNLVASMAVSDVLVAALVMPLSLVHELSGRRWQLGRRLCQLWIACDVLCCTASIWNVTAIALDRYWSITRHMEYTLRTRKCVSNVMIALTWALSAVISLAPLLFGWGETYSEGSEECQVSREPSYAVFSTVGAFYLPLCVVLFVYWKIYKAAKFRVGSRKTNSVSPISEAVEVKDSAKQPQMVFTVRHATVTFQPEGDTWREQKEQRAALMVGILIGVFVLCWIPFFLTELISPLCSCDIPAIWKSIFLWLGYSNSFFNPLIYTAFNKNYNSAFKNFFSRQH
Conditions: not given
For `O=C(O)[C@@]12C[C@@H]1[C@@H](n1cnc3c(NC(C4CC4)C4CC4)nc(Cl)nc31)[C@H](O)[C@@H]2O`, the inhibition was under 50%.

Another experiment addresses T3, 5-hydroxytryptamine receptor 2A (Homo sapiens, UniProt P28223). Description: Displacement of [3H]ketanserin from human 5-HT2A receptor expressed in HEK-T cell membranes at 10 uM incubated for 90 mins under dark condition by microbeta scintillation counting method relative to control.
Conditions: not given
Compound `O=C(O)[C@@]12C[C@@H]1[C@@H](n1cnc3c(NC(C4CC4)C4CC4)nc(Cl)nc31)[C@H](O)[C@@H]2O` displayed an inhibition of under 10%.

The next experiment deals with T4, 5-hydroxytryptamine receptor 2C (Homo sapiens, UniProt P28335).
T4 sequence (P28335 whole entry): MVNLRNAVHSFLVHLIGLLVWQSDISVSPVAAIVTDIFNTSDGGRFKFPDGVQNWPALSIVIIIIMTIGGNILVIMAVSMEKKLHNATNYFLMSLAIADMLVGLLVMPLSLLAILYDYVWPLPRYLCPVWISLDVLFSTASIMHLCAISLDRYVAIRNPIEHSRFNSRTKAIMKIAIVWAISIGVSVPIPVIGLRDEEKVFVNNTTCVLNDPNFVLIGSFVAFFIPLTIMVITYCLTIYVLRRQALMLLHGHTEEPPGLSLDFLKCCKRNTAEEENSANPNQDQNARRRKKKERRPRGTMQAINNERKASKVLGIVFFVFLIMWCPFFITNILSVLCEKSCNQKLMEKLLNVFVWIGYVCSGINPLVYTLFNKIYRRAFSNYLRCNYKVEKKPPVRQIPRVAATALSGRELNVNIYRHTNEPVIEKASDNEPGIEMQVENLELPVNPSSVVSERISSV
Description: Displacement of [3H]mesulergine from human 5-HT2CR expressed in Flp-In HEK cell membranes incubated for 90 mins under dark condition by microbeta scintillation counting method. Details: species or system HEK293.
Conditions: not given
For `O=C(O)[C@@]12C[C@@H]1[C@@H](n1cnc3c(NC(C4CC4)C4CC4)nc(Cl)nc31)[C@H](O)[C@@H]2O`, the pKi is 5.59.

Another experiment concerns the target T5, 5-hydroxytryptamine receptor 2C (Homo sapiens) (UniProt P28335).
T5 sequence (whole entry): T4 sequence (P28335 whole entry)
The experiment is described as follows: Displacement of [3H]mesulergine from human 5-HT2CR expressed in Flp-In HEK cell membranes at 10 uM incubated for 90 mins under dark condition by microbeta scintillation counting method relative to control. The conditions noted are these: HEK293.
`O=C(O)[C@@]12C[C@@H]1[C@@H](n1cnc3c(NC(C4CC4)C4CC4)nc(Cl)nc31)[C@H](O)[C@@H]2O` registered an inhibition of over 50%.

The target of a further experiment is Adenosine receptor A2a (Homo sapiens, UniProt P29274). Description: Displacement of [3 H]2-[p-(2-carboxyethyl)phenyl-ethylamino]-5'-N-ethylcarboxamidoadenosine from recombinant human adenosine receptor A2A expressed in HEK293 cell membranes at 10 uM after 60 mins by liquid scintillation counting method relative to control.
Chain of Adenosine receptor A2a (P29274 whole entry): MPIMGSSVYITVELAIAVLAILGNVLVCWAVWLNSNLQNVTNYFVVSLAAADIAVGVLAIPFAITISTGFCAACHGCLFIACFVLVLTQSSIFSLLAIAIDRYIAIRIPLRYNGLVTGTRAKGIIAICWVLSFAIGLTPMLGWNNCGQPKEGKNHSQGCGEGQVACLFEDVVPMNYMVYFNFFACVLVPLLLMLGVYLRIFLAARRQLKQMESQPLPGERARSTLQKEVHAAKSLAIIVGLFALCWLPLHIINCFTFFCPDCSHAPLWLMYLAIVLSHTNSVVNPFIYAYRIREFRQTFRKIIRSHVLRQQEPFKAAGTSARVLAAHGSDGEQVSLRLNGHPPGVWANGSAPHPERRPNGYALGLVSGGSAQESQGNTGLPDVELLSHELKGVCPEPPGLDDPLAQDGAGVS
Conditions: not given
As for `O=C(O)[C@@]12C[C@@H]1[C@@H](n1cnc3c(NC(C4CC4)C4CC4)nc(Cl)nc31)[C@H](O)[C@@H]2O`, the inhibition is under 10%.

A further experiment has as its target T6, Adenosine receptor A3 (Homo sapiens, UniProt P0DMS8).
T6 sequence (P0DMS8 whole entry): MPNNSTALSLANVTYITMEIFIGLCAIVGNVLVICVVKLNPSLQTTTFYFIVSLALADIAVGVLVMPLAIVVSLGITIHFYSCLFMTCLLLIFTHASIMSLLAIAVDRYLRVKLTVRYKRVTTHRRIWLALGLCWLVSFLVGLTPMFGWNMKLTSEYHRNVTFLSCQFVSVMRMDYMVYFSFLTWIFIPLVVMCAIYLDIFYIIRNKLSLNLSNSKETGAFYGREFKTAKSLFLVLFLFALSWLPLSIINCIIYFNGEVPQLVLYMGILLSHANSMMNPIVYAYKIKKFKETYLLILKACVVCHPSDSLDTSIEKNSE
Description: Displacement of [125l]N 6-(4-amino-3-iodobenzyl)adenosine-5'-N-methyluronamide from recombinant human A3AR expressed in CHO cell membranes after 60 mins by gamma counting method.
Conditions: not given
For `O=C(O)[C@@]12C[C@@H]1[C@@H](n1cnc3c(NC(C4CC4)C4CC4)nc(Cl)nc31)[C@H](O)[C@@H]2O`, the pKi is 5.22.

In another experiment the target is T3, 5-hydroxytryptamine receptor 2A. Description: Displacement of [3H]ketanserin from human 5-HT2A receptor expressed in HEK-T cell membranes incubated for 90 mins under dark condition by microbeta scintillation counting method.
Conditions: not given
`O=C(O)[C@@]12C[C@@H]1[C@@H](n1cnc3c(NC(C4CC4)C4CC4)nc(Cl)nc31)[C@H](O)[C@@H]2O` had a pKi of under 5.00.
